In brackets after ≈: the same amount, converted by molar mass.
Columns and labels:
Format in all cases: in vivo
[1] = test system: Southern army worm (Prodenia eridania); assay: Southern army worm spray test (AW); details: 72 h; contact activity rating, 50% mortality, three days
Protocol: (§1) The compounds are evaluated for biological activity against the following representative pests: Mexican bean beetle (Epilachna varivestis), Southern army worm (Prodenia eridania), housefly (Musca domestica), bean aphid (Aphis fabae), and red spider mite (Tetranychus sp.). The last two pests are treated both by contact and systemic application.
(§2) For purposes of comparison, results obtained with known Compound 7472, Compound 7577, and aldicarb are included in the test results. Each test compound is rated using the following scale:
Southern Army Worm Spray Test
Paired fully expanded primary leaves excised from Scarlet runner bean plants are maintained in plastic tubes containing water and sprayed with the test formulation prepared as described in Example 15. After the spray deposit on the leaves is dry, the paired leaves are separated. One leaf is placed onto 1.5 percent water agar and infested with 10 newly hatched Southern army worm larvae. The covered test receptacle is held at 72° F for three days and then the percent mortality is determined. Results of this test are shown in Table 7 as AW (Southern army worm spray test).

[2] = test system: housefly (Musca domestica); assay: Housefly spray test (HF); details: 72 h, contact activity rating, 50% mortality, three days
Protocol: as §1, §2
This test determines the insecticidal activity of the compound being tested against adult houseflies, Musca domestica. Stock formulations containing 500 ppm of each test chemical are prepared using the procedure described in Example 15 and are diluted to obtain the appropriate lower concentrations.
Ten adult flies are placed in a cylindrical screen cage 11/2 by 4 inches fabricated from 20-mesh stainless steel screening and are sprayed with 50 ml of the stock or diluted formulation. The flies are supplied food and drink from a dextrose solution by draping a paper wick over the outside of the screen cylinder and are able to feed and drink ad libitum. Percent mortality obtained is determined three days after treatment. Results of this test are shown in Table 7 as HF (housefly spray test).

[3] = test system: root-knot nematodes (Meloidogyne spp.); assay: Root-knot nematocide test
Protocol: Root-knot Nematocide Test
This test is an evaluation of the effectiveness of the compound being tested against infection by root-knot nematodes (Meloidogyne spp.).
Composted greenhouse soil, diluted by one-third with clean washed sand, is infected with about two grams of knotted or galled tomato roots per pot. Treatment is accomplished by applying 25 ml of the formulated compound onto the infested soil. The formulation contains 0.056 g of Compound 7960, 1.0 ml stock emulsifier solution (0.25% Triton X-155 in acetone by volume), and 24.0 ml deionized water, giving a concentration of 2240 ppm. Lower concentrations are achieved by dilution.
After treatment with the test formulation, the soil, inoculum, and formulation are thoroughly mixed, returned to the pot, and the mixture incubated for seven days at 20° C and constant moisture. After incubation, two seedlings of Rutgers tomato transplants and three garden nasturtium (Nasturtium spp.) seeds are set in each pot. Roots are removed from the soil after three weeks of growth and rated for gall (root-knot nematode infection) formation. Nasturtium roots are evaluated only when necrosis of the tomato host has occurred. […] Each of the root systems is rated separately and the average is multiplied by 10 and subtracted from 100 to give percent nematode control.

Structure (SMILES)	LC50 [1]	LC50 [2]	further results
CNC(=O)ON=C(C)C(C)(C)C [Compound 7472, 2,2-dimethyl-3-methylcarbamyloximinobutane, reference compound]	> 500 µg/mL	> 500 µg/mL	–
CNC(=O)ON=C(CSCC(=O)OC)C(C)(C)C [Compound 7503, 1-carbomethoxymethylthio-3,3-dimethyl-2-methylcarbamyloximinobutane]	> 500 µg/mL	> 500 µg/mL	–
CNC(=O)ON=C(C)C(C)(C)SC [Compound 7577, 3-methyl-2-methylcarbamyloximino-3-methylthiobutane, reference compound]	> 500 µg/mL	> 500 µg/mL	–
CNC(=O)ON=C(C)CSC [Compound 7603, 2-methylcarbamyloximino-1-methylthiopropane]	> 500 µg/mL	16 to 32 µg/mL (≈ 90.8 to 182 µM)	–
CNC(=O)ON=C(CSc1ccccc1)C(C)(C)C [Compound 7718, 3,3-dimethyl-2-methylcarbamyloximino-1-phenylthiobutane]	> 500 µg/mL	250 to 500 µg/mL (≈ 892 to 1780 µM)	–
CCNC(=O)ON=C(CSC)C(C)(C)C [Compound 7797, 2-ethylcarbamyloximino-3,3-dimethyl-1-methylthiobutane]	> 500 µg/mL	64 to 128 µg/mL (≈ 275 to 551 µM)	–
C=CCNC(=O)ON=C(CSC)C(C)(C)C [Compound 7799, 2-allylcarbamyloximino-3,3-dimethyl-1-methylthiobutane]	> 500 µg/mL	128 to 250 µg/mL (≈ 524 to 1020 µM)	–
CNC(=O)ON=C(C[S+](C)[O-])C(C)(C)C (centres unmarked) [Compound 7804, 3,3-dimethyl-2-methylcarbamyloximino-1-methylsulfinylbutane]	128 to 250 µg/mL (≈ 546 to 1070 µM)	128 to 250 µg/mL (≈ 546 to 1070 µM)	–
CSCC(=NOC(N)=O)C(C)(C)C [Compound 7859, 2-carbamyloximino-3,3-dimethyl-1-methylthiobutane]	> 500 µg/mL	> 500 µg/mL	–
CCSCC(=NOC(=O)NC)C(C)(C)C [Compound 7862, 1-ethylthio-3,3-dimethyl-2-methylcarbamyloximinobutane]	> 500 µg/mL	64 to 128 µg/mL (≈ 275 to 551 µM)	–
CNC(=O)ON=C(CSC)C(C)C [Compound 7867, 3-methyl-2-methylcarbamyloximino-1-methylthiobutane]	> 500 µg/mL	64 to 128 µg/mL (≈ 313 to 627 µM)	–
CSCC(=NOC(=O)N(C)C)C(C)(C)C [Compound 7871, 3,3-dimethyl-2-dimethylcarbamyloximino-1-methylthiobutane]	> 500 µg/mL	> 500 µg/mL	–
C=CCSCC(=NOC(=O)NC)C(C)(C)C [Compound 7897, 1-allylthio-3,3-dimethyl-2-methylcarbamyloximinobutane]	> 500 µg/mL	64 to 128 µg/mL (≈ 262 to 524 µM)	–
CCC(CSC)=NOC(=O)NC [Compound 7916, 2-methylcarbamyloximino-1-methylthiobutane]	> 500 µg/mL	64 to 128 µg/mL (≈ 336 to 673 µM)	–
CCCC(C)(C)C(CSC)=NOC(=O)NC [Compound 7934, 3,3-dimethyl-2-methylcarbamyloximino-1-methylthiohexane]	> 500 µg/mL	> 500 µg/mL	–
CNC(=O)ON=C(CSC)C(C)(C)SC [Compound 7960, 1,3-bis(methylthio)-3-methyl-2-methylcarbamyloximinobutane]	> 500 µg/mL	> 500 µg/mL	Percent Control (nematode) ([3]; 0.5 lb/A): 97%; Percent Control (nematode) ([3]; 1 lb/A): 100%; Percent Control (nematode) ([3]; 2 lb/A): 100%; Percent Control (nematode) ([3]; 4 lb/A): 100%; Percent Control (nematode) ([3]; 8 lb/A): 100%
CNC(=O)ON=C(CSC#N)C(C)(C)C [Compound 7991, 3,3-dimethyl-2-methylcarbamyloximino-1-thiocyanatobutane]	> 500 µg/mL	> 500 µg/mL	–
CNC(=O)ON=C(C(C)SC)C(C)(C)C (centres unmarked) [Compound 8071, 2,2-dimethyl-3-methylcarbamyloximino-4-methylthiopentane]	> 500 µg/mL	> 500 µg/mL	–
CNC(=O)ON=C(CCSC)C(C)(C)C [Compound 8111, 4,4-dimethyl-3-methylcarbamyloximino-1-methylthiopentane]	> 500 µg/mL	250 to 500 µg/mL (≈ 1080 to 2150 µM)	–
CNC(=O)ON=C(C1SCCS1)C(C)(C)C [Compound 8423, 1,1-ethylenedithio-3,3-dimethyl-2-methylcarbamyloximinobutane]	–	–	Percent Control (nematode) ([3]; 2 lb/A): 60%; Percent Control (nematode) ([3]; 4 lb/A): 90%; Percent Control (nematode) ([3]; 8 lb/A): 100%
CNC(=O)ON=C(CSC)C1CC1 [Compound 8465, 1-cyclopropyl-1-methylcarbamyloximino-2-methylthioethane]	250 to 500 µg/mL (≈ 1240 to 2470 µM)	128 to 250 µg/mL (≈ 633 to 1240 µM)	–
CNC(=O)ON=C(CSC)CC(C)(C)C [Compound 8519, 4,4-dimethyl-2-methylcarbamyloximino-1-methylthiopentane]	> 500 µg/mL	> 500 µg/mL	–
CCC(C)(C)C(CSC)=NOC(=O)NC [Compound 8520, 3,3-dimethyl-2-methylcarbamyloximino-1-methylthiopentane]	> 500 µg/mL	> 500 µg/mL	–
CNC(=O)ON=C(CS(C)(=O)=O)C(C)(C)C [Compound 8868, 3,3-dimethyl-2-methylcarbamyloximino-1-methylsulfonylbutane]	> 500 µg/mL	128 to 250 µg/mL (≈ 511 to 999 µM)	–
CNC(=O)ON=C(CN=[N+]=[N-])C(C)(C)C [Compound 8997, 1-azido-3,3-dimethyl-2-methylcarbamyloximinobutane]	128 to 250 µg/mL (≈ 600 to 1170 µM)	128 to 250 µg/mL (≈ 600 to 1170 µM)	Percent Control (nematode) ([3]; 2 lb/A): 0%; Percent Control (nematode) ([3]; 4 lb/A): 100%; Percent Control (nematode) ([3]; 8 lb/A): 100%
CNC(=O)ON=C(CSCCSC)C(C)(C)C [Compound 9026, 3,3-dimethyl-2-methylcarbamyloximino-1-(2-methylthioethylthio)-butane]	> 500 µg/mL	> 500 µg/mL	Percent Control (nematode) ([3]; 1 lb/A): 30%; Percent Control (nematode) ([3]; 2 lb/A): 60%; Percent Control (nematode) ([3]; 4 lb/A): 70%; Percent Control (nematode) ([3]; 8 lb/A): 90%
CCCC(CSC)=NOC(=O)NC [Compound 9057, 2-methylcarbamyloximino-1-methylthiopentane]	> 500 µg/mL	250 to 500 µg/mL (≈ 1220 to 2450 µM)	–
CNC(=O)ON=C(CSC)CC(C)C [Compound 9058, 4-methyl-2-methylcarbamyloximino-1-methylthiopentane]	> 500 µg/mL	250 to 500 µg/mL (≈ 1150 to 2290 µM)	–
CNC(=O)O/N=C/C(C)(C)SC [aldicarb, reference compound]	> 500 µg/mL	4 to 8 µg/mL (≈ 21 to 42 µM)	–
